One data set is described as follows: in vivo. The note with it: mouse, iv. How it is done: Male CD1 mice from Charles River, weighing 25 g, are used. Compounds are administered intravenously (i.v.), dissolved in dimethylsulfoxide, and the volume of administration is 0.01 ml/10 g of body weight. The lethal dose, LD50 after seven days, is calculated according to the method of Litchfield and Wilcoxon (Exp. Ther. 96, 99 (1949)).

The subject of data set [1] is taenia coli of guinea pigs, depolarized, stimulated with CaCl2. Put plainly: Antagonistic activity to calcium in the taenia coli of guinea pigs (in vitro). The class given is cell-based, Hartley albino guinea pigs. The note with it: for IC50: Cavia porcellus, read-out: Ca--antagonistic activity in vitro ED50. How it is done:
Hartley albino guinea pigs of average weight 450 g are used. […] The compounds are allowed to stand in contact with the preparation for ten minutes. The activities ED50 are calculated from the maximum percentage of inhibition.

Where [2] appears, read: taenia coli, CaCl2 10^-3 M, ten minutes contact, from maximum percentage of inhibition (for 0265B, 0246B, 0247B, 0270B, 0224A independent of time of appearance).

The text below walks through data of patent US4508719A, “Hydroxyimino and alkoxyimino derivatives of 1,4-dihydropyridine and anti-hypertensive compositions” (Pierrel S.p.A., priority 1982, dated 1985).

As usually defined, the LD50 is the dose expected to kill half of the subjects tested. The low end stands for a more toxic substance, the high end for a less toxic substance.

Read-outs that look alike come from different tables or passages of the source.

Compound `CCOC(=O)C1=C(C)NC(C)=C(C(=O)OC)C1c1cccc([N+](=O)[O-])c1` (centres unmarked) [Nitrendipine, reference compound] had an LD50 at 168 h in “in vivo” of 34.5 mg/kg. For the same compound, in data set [1] (setting [2]), the IC50 was found to be 1.9 nM.

For `CCON=C(C)C1=C(C)NC(C)=C(C(=O)OC)C1c1cccc([N+](=O)[O-])c1` (centres unmarked) [0235A, Methyl 2,6-dimethyl-3-(1-ethoxyimino)ethyl-4-(3-nitrophenyl)-1,4-dihydropyridin-5-carboxylate], in the data set “in vivo”, the LD50 at 168 h turned out to be 30.6 mg/kg. The IC50 in data set [1] (setting [2]) came to 7.4 nM.

On to `COC(=O)C1=C(C)NC(C)=C(C(C)=NOCCN(C)Cc2ccccc2)C1c1cccc([N+](=O)[O-])c1` (centres unmarked) [0224A, Methyl 2,6-dimethyl-3-[1-(2-N-benzyl-N-methylamino)ethoxy-imino]ethyl-4-(3-nitrophenyl)-1,4-dihydropyridin-5-carboxylate], for which the LD50 at 168 h in “in vivo” is 3.3 mg/kg. The IC50 in data set [1] (setting [2]) worked out at 18 nM. For the same compound, in data set [1] (taenia coli), the “inhibition of contractions due to CaCl2 after repeated washing of the tissue” value (“inhibition of contractions due to CaCl2” for short) is given as “increases progressively in spite of repeated washing of the tissue”.

`COC(=O)C1=C(C)NC(C)=C(C(C)=NOCCN(C)C)C1c1cccc([N+](=O)[O-])c1` (centres unmarked) [0274B]: the LD50 at 168 h in “in vivo” stood at 38.3 mg/kg. Moreover, the IC50 in data set [1] (setting [2]) worked out at 510 nM.

The compound `COC(=O)C1=C(C)NC(C)=C(C(C)=NOCc2ccccc2)C1c1cccc([N+](=O)[O-])c1` (centres unmarked) [0247B] yielded an LD50 at 168 h in “in vivo” of 28.9 mg/kg. The IC50 in data set [1] (setting [2]) came out at 4.8 nM. Moreover, the “inhibition of contractions due to CaCl2” value in data set [1] (taenia coli) is listed as “increases progressively in spite of repeated washing of the tissue”.

`CCOCCON=C(C)C1=C(C)NC(C)=C(C(=O)OC)C1c1cccc([N+](=O)[O-])c1` (centres unmarked) [0254B] showed an LD50 at 168 h in the data set “in vivo” of 35 mg/kg. The IC50 in data set [1] (setting [2]) was 5.9 nM.

For the compound `CON=C(C)C1=C(C)NC(C)=C(C(=O)OC)C1c1cccc([N+](=O)[O-])c1` (centres unmarked) [0251A, Methyl 2,6-dimethyl-3-(1-methoxyimino)ethyl-4-(3-nitrophenyl)-1,4-dihydropyridin-5-carboxylate], the LD50 at 168 h in the data set “in vivo” was found to be 27.3 mg/kg. The IC50 in data set [1] (setting [2]) turned out to be 26 nM.

Regarding `CCOC(=O)CON=C(C)C1=C(C)NC(C)=C(C(=O)OC)C1c1cccc([N+](=O)[O-])c1` (centres unmarked) [0234A, Methyl 2,6-dimethyl-3-[1-(ethoxycarbonyl)methoxyimino]ethyl-4-(3-nitrophenyl)-1,4-dihydro-pyridin-5-carboxylate], in the data set “in vivo”, the LD50 at 168 h was 17.3 mg/kg. The IC50 in data set [1] (setting [2]) stood at 29 nM.

`CCCCON=C(C)C1=C(C)NC(C)=C(C(=O)OC)C1c1cccc([N+](=O)[O-])c1` (centres unmarked) [0246B] came in with an LD50 at 168 h in the data set “in vivo” of 37.5 mg/kg. For the same compound, the IC50 in data set [1] (setting [2]) turned out to be 7 nM. Further, the “inhibition of contractions due to CaCl2” value in data set [1] (taenia coli) was “increases progressively in spite of repeated washing of the tissue”.

As for `C=CCON=C(C)C1=C(C)NC(C)=C(C(=O)OC)C1c1cccc([N+](=O)[O-])c1` (centres unmarked) [0245B], the LD50 at 168 h in the data set “in vivo” stood at 35.4 mg/kg. Besides, the IC50 in data set [1] (setting [2]) was determined as 4.7 nM.

Take `COC(=O)C1=C(C)NC(C)=C(C(C)=NOCCN2CCCCC2)C1c1cccc([N+](=O)[O-])c1` (centres unmarked) [0276B]: the LD50 at 168 h in “in vivo” came out at 22.7 mg/kg. Besides, in data set [1] (setting [2]), the IC50 is 220 nM.

In “in vivo”, `COC(=O)C1=C(C)NC(C)=C(C(C)=NOC(C)C)C1c1cccc([N+](=O)[O-])c1` (centres unmarked) [0265B] had an LD50 at 168 h of 27.6 mg/kg. The IC50 in data set [1] (setting [2]) worked out at 4.4 nM. Also, the “inhibition of contractions due to CaCl2” value in data set [1] (taenia coli) was “increases progressively in spite of repeated washing of the tissue”.

Turning to `COC(=O)C1=C(C)NC(C)=C(C(=O)OC)C1c1ccccc1[N+](=O)[O-]` [Nifedipine, reference compound], the IC50 in data set [1] came out at 2.6 nM.

`COC(=O)C1=C(C)NC(C)=C(C(C)=NOC2CCCC2)C1c1cccc([N+](=O)[O-])c1` (centres unmarked) [0270B] showed an LD50 at 168 h in “in vivo” of 70.3 mg/kg. Also, the IC50 in data set [1] (setting [2]) amounted to 5.6 nM. The “inhibition of contractions due to CaCl2” value in data set [1] (taenia coli) is reported as “increases progressively in spite of repeated washing of the tissue”.

In the case of `CCOCCON=C(COC)C1=C(C)NC(C)=C(C(=O)OC)C1c1cccc([N+](=O)[O-])c1` (centres unmarked) [0286C], the median lethal dose (LD50) at 168 h in “in vivo” is > 160 mg/kg. Besides, the IC50 in data set [1] (setting [2]) was found to be 370 nM.

In turn, `COC(=O)C1=C(C)NC(C)=C(C(C)=NO)C1c1cccc([N+](=O)[O-])c1` (centres unmarked) [0227A, Methyl 2,6-dimethyl-3-(1-hydroxyimino)ethyl-4-(3-nitrophenyl)-1,4-dihydropyridine-5-carboxylate] showed an LD50 at 168 h in “in vivo” of 15.2 mg/kg. In addition, in data set [1] (setting [2]), the IC50 was 270 nM.

In the data set “in vivo”, `COC(=O)C1=C(C)NC(C)=C(C(=O)OCCN(C)Cc2ccccc2)C1c1cccc([N+](=O)[O-])c1` (centres unmarked) [Nicardipine, reference compound] showed an LD50 at 168 h of 17.4 mg/kg. Moreover, the IC50 in data set [1] (setting [2]) stood at 2.3 nM.
